Reference: US9422293B2 (priority 2006, dated 2016)
Structures can show the parent of a compound that is named as a salt.

biological target: rat TRPV1 (Rattus norvegicus (Rat), UniProt O35433); settings: read-out: Rat IC50
Sequence (O35433 whole entry): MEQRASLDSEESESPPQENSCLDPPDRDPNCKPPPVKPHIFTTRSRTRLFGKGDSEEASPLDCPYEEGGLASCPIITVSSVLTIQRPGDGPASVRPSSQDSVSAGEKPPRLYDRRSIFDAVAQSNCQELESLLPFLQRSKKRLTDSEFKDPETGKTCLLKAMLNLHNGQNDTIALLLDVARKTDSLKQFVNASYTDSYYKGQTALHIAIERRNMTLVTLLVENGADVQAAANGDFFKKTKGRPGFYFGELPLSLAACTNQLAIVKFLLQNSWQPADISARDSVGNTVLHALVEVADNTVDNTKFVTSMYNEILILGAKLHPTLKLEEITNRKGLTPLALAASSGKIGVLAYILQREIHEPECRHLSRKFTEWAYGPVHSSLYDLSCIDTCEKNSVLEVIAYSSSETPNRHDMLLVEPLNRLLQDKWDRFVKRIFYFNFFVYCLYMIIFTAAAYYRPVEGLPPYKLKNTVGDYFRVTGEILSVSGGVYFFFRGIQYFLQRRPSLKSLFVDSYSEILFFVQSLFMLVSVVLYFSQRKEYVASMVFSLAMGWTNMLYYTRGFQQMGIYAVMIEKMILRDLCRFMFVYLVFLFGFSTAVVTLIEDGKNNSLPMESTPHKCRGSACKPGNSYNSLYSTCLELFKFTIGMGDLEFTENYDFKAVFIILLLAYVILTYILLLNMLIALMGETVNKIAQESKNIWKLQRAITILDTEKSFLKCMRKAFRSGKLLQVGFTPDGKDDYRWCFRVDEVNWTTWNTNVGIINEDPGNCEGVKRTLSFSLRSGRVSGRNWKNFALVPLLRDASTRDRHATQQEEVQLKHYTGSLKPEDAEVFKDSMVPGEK

SMILES	IC50
CN1CCN(c2nc3c(c(Nc4ccc(C(F)(F)F)cn4)n2)CCN(c2ncccc2C(F)(F)F)CC3)CC1 [Example 193, 2-(4-Methylpiperazin-1-yl)-7-[3-(trifluoromethyl)pyridin-2-yl]-N-[5-(trifluoromethyl)pyridin-2-yl]-6,7,8,9-tetrahydro-5H-pyrimido[4,5-d]azepin-4-amine]	2110 nM
CC(C)c1nc2c(c(NCCc3ccccc3F)n1)CCN(c1ncccc1C(F)(F)F)CC2 [Example 118, N-[2-(2-Fluorophenyl)ethyl]-2-(1-methylethyl)-7-[3-(trifluoromethyl)pyridin-2-yl]-6,7,8,9-tetrahydro-5H-pyrimido[4,5-d]azepin-4-amine]	500 nM
CC(C)(C)c1ccc(Nc2nc(-c3ccccn3)nc3c2CCN(c2ncccc2C(F)(F)F)CC3)cc1 [Example 171, N-[4-(1,1-Dimethylethyl)phenyl]-2-pyridin-2-yl-7-[3-(trifluoromethyl)pyridin-2-yl]-6,7,8,9-tetrahydro-5H-pyrimido[4,5-d]azepin-4-amine trifluoroacetic acid salt]	80 nM
COC(=O)c1ccc(Nc2nc(C(C)C)nc3c2CCN(c2ncccc2C(F)(F)F)CC3)cc1 [Example 103, 4-[2-Isopropyl-7-(3-trifluoromethyl-pyridin-2-yl)-6,7,8,9-tetrahydro-5H-pyrimido[4,5-d]azepin-4-ylamino]-benzoic acid methyl ester]	340 nM
Cc1cc(C(F)(F)F)ccc1Nc1nc(SC(C)C)nc2c1CCN(c1ncccc1C(F)(F)F)CC2 [Example 366, 2-[(1-Methylethyl)sulfanyl]-N-[2-methyl-4-(trifluoromethyl)phenyl]-7-[3-(trifluoromethyl)pyridin-2-yl]-6,7,8,9-tetrahydro-5H-pyrimido[4,5-d]azepin-4-amine]	130 nM
Cc1cc(C(F)(F)F)ccc1Nc1nc(OC(C)C2CCCCC2)nc2c1CCN(c1ncccc1C(F)(F)F)CC2 (centres unmarked) [Example 309, 2-[(1-Cyclohexylethyl)oxy]-N-[2-methyl-4-(trifluoromethyl)phenyl]-7-[3-(trifluoromethyl)pyridin-2-yl]-6,7,8,9-tetrahydro-5H-pyrimido[4,5-d]azepin-4-amine]	1420 nM
O[C@H]1CCCN(c2nc3c(c(Nc4ccc(C(F)(F)F)cc4)n2)CCN(c2ncccc2C(F)(F)F)CC3)C1 [Example 94B, (S)-1-[4-(4-Trifluoromethyl-phenylamino)-7-(3-trifluoromethyl-pyridin-2-yl)-6,7,8,9-tetrahydro-5H-pyrimido[4,5-d]azepin-2-yl]-piperidin-3-ol trifluoroacetic acid salt]	190 nM
COCc1nc2c(c(Nc3ccc(C(F)(F)F)c(Cl)c3)n1)CCN(c1ncccc1C(F)(F)F)CC2 [Example 80B, (3-Chloro-4-trifluoromethyl-phenyl)-[2-methoxymethyl-7-(3-trifluoromethyl-pyridin-2-yl)-6,7,8,9-tetrahydro-5H-pyrimido[4,5-d]azepin-4-yl]-amine trifluoroacetic acid salt]	130 nM
CC(=O)c1ccc(Nc2nc(N3CCOCC3)nc3c2CCN(c2ncccc2C(F)(F)F)CC3)cc1 [Example 380, 1-[4-({2-Morpholin-4-yl-7-[3-(trifluoromethyl)pyridin-2-yl]-6,7,8,9-tetrahydro-5H-pyrimido[4,5-d]azepin-4-yl}amino)phenyl]ethanone]	230 nM
FC(F)(F)c1ccc(Nc2nc(N3CCOCC3)nc3c2CCN(c2ncccc2C(F)(F)F)CC3)cc1 [Example 40, [2-Morpholin-4-yl-7-(3-trifluoromethyl-pyridin-2-yl)-6,7,8,9-tetrahydro-5H-pyrimido[4,5-d]azepin-4-yl]-(4-trifluoromethyl-phenyl)-amine]	56 nM
CC(C)(C)c1ccc(Nc2nc(N3CCOCC3)nc3c2CCN(c2ncccc2C(F)(F)F)CC3)cc1 [Example 47, (4-tert-Butyl-phenyl)-[2-morpholin-4-yl-7-(3-trifluoromethyl-pyridin-2-yl)-6,7,8,9-tetrahydro-5H-pyrimido[4,5-d]azepin-4-yl]-amine]	23 nM
